Test results: ChEMBL document CHEMBL4482324, “Ash1l inhibitors and methods of treatment therewith” (2017)

Target: Histone-lysine N-methyltransferase ASH1L (Homo sapiens, UniProt Q9NR48)
Test: Inhibition of MOCR-fused ASH1L SET-BAH ( 2069 to 2833 amino acids) (unknown origin) expressed as in Escherichia coli BL21 (DE3) T1R cells using SAM and chicken mono/dinucleosomes incubated for 1 hr by scintillation counting assay

SMILES | IC50 [µM]
NC(=S)c1cccc(-c2cn(CC(CO)(C(F)F)C(F)F)c3cc(C(O)CCF)ccc23)c1 (stereo not given) | < 20
NC(=S)c1cc(-c2cn(CCC(F)F)c3cc(CO)ccc23)c[nH]1 | < 20
NC(=S)c1cccc(-c2cc(CCC(F)F)c3[nH]ccc3c2)c1 | < 20
NC(=S)c1cccc(-c2cn(C3CCN(S(=O)(=O)CCCNC(=O)c4ccc5c(c4)C(=O)OC54c5ccc(O)cc5Oc5cc(O)ccc54)CC3)c3cc(CNc4nnc(N)s4)ccc23)c1 | < 20
CS(=O)(=O)N1CCC(n2cc(-c3cccc(C(N)=S)c3)c3ccc(Nc4nccs4)cc32)CC1 | < 20
NCc1ccc2c(c1)c(CC(CF)CF)cn2-c1cccc(C(N)=S)c1 | < 20
CS(=O)(=O)N1CCC(n2cc(-c3cccc(C(N)=S)c3)c3ccc(CNC(=O)Nc4cc[nH]n4)cc32)CC1 | < 20
NC(=S)c1cccc(-c2ccc(O)c3c2CCC3)c1 | > 100
NC(=S)c1cccc(-c2cn(CCC(F)(F)F)c3cc(N)ccc23)c1 | < 20
CS(=O)(=O)N1CCC(n2cc(-c3cccc(C(N)=S)c3)c3ccc(CNC(=O)Cc4[nH]cc5ccccc45)cc32)CC1 | < 20
NC(=S)c1cccc(-c2cn(CC(CF)CF)c3cc(NC(=O)c4cnc[nH]4)ccc23)c1 | < 20
NC(=S)c1cccc(-c2cn(CC3(F)CCC3)c3cc(CO)ccc23)c1 | < 20
NC(=S)c1cccc(-c2cn(C3CNC3)c3cc(CO)ccc23)c1 | < 20
NC(=S)c1cccc(-c2cn(CCC(F)F)c3cc(C(O)CO)ccc23)c1 (stereo not given) | < 20
NC(=S)c1cccc(-c2cn(C3CCC3)c3cc(CO)ccc23)c1 | < 20
NC(=S)c1cccc(-c2cn(CCCC(F)(F)F)c3cc(CNC(=O)c4csc(N)n4)ccc23)c1 | < 20
CS(=O)(=O)N1CCC(n2cc(-c3cccc(C(N)=S)c3)c3ccc(CNC(=O)Cc4cc(NCC5CCCCC5)c[nH]4)cc32)CC1 | < 20
Cc1cc(C)n2c1C=C1C=CC(CCCCC(=O)NCCOCCOc3ccc(-c4cccc(C(N)=S)c4)c4cc[nH]c34)=[N+]1[B-]2(F)F | > 100
Nc1ccc2c(-c3ccc4ccnc(N)c4c3)cn(CCC(F)F)c2c1 | < 20
NC(=S)c1cc(O)cc(-c2cccc3[nH]ccc23)c1 | > 100
NC(=S)c1cccc(-c2cn(CCCC(F)(F)F)c3cc(CNCc4cccnc4)ccc23)c1 | < 20
NC(=S)c1cccc(-c2c[nH]c3cc(N)ccc23)c1 | 20 to 100
Cn1ccc2c(-c3cccc(C(N)=S)c3)cccc21 | 20 to 100
NC(=S)c1cccc(-c2cn(CCC3CC3)c3cc(CO)ccc23)c1 | < 20
NC(=S)c1cccc(-c2cccc3[nH]c(CSP(=S)(c4ccccc4)c4ccccc4)cc23)c1 | > 100
NC(=S)c1cccc(-c2cccc3[nH]ncc23)n1 | > 100
NC(=S)c1ccc(-c2cn(CCC(F)F)c3cc(CO)ccc23)[nH]1 | < 20
NC(=S)c1cccc(-c2ccc(O)cc2)n1 | > 100

SMILES | IC50 [µM]
NC(=S)c1cc(-c2cn(CCC(F)F)c3cc(CO)ccc23)c2cc[nH]c2c1 | < 20
NC(=S)c1cccc(-c2cn(CC3CC3(F)F)c3cc(N)ccc23)c1 (stereo not given) | < 20
NC(=S)c1cccc(-c2cn(CC(CO)(C(F)F)C(F)F)c3cc(C(O)CC(F)F)ccc23)c1 (stereo not given) | < 20
CC(O)c1ccc2c(-c3cccc(C(N)=S)c3)cn(CC(CF)CF)c2c1 (stereo not given) | < 20
CCCc1c[nH]c(CC(=O)NCc2ccc3c(-c4cccc(C(N)=S)c4)cn(C4CCN(S(C)(=O)=O)CC4)c3c2)c1 | < 20
Cc1[nH]c2ccccc2c1-c1cccc(C(N)=S)c1 | > 100
NCCn1cc(-c2cccc(C(N)=S)c2)c2ccccc21 | 22
Cc1cc(C(N)=S)cc(-c2ccc(O)cc2)c1 | > 100
NC(=S)c1cccc(-c2cn(C3CCCCC3O)c3cc(CO)ccc23)c1 (stereo not given) | < 20
NC(=S)c1c[nH]c(=O)c(-c2cn(CCC(F)F)c3cc(CO)ccc23)c1 | < 20
NC(=S)c1cc(-c2cn(CCC(F)F)c3cc(CO)ccc23)c2scnc2c1 | < 20
NCc1ccc2c(-c3cccc(C(N)=S)c3)c[nH]c2c1 | 36
CCC(O)c1ccc2c(-c3cccc(C(N)=S)c3)cn(CCC(F)F)c2c1 (stereo not given) | < 20
CCOc1c[nH]c(CC(=O)NCc2ccc3c(-c4cccc(C(N)=S)c4)cn(C4CCN(S(C)(=O)=O)CC4)c3c2)c1 | < 20
NC(=S)c1cccc(-c2cn(CC(CF)CF)c3cc(NC(=O)c4ncc[nH]4)ccc23)c1 | < 20
NC(=O)c1cccc(-c2cn(CC(CF)CF)c3cc(N)ccc23)c1 | < 20
CC(O)Cn1cc(-c2cccc(C(N)=S)c2)c2ccccc21 (stereo not given) | 20 to 100
NC(=S)c1cccc(-c2cn(CC(O)(CC(F)(F)F)CC(F)(F)F)c3cc(N)ccc23)c1 | < 20
NC(=O)c1cc2c(-c3cccc(C(N)=S)c3)cccc2[nH]1 | > 100
NC(=S)c1cccc(-n2cc(C3CCCCC3O)c3cc(CO)ccc32)c1 (stereo not given) | < 20
NC(=S)c1cc(-c2cn(CCC(F)F)c3cc(CO)ccc23)ccc1F | < 20
NC(=S)c1cccc(-c2cn(CO)c3ccccc23)c1 | 20 to 100
CC(=O)NCc1ccc2c(-c3cccc(C(N)=S)c3)c[nH]c2c1 | 20 to 100
Cc1cc2c(-c3cccc(C(N)=S)c3)cccc2n1C | > 100
COc1ccc(-c2cccc(C(N)=S)c2)cc1 | > 100
NC(=S)c1cc(-c2cn(CCC(F)F)c3cc(CO)ccc23)c2[nH]cnc2c1 | < 20
NC(=S)c1cccc(-c2cn(CCO)c3cc([N+](=O)[O-])ccc23)c1 | 20 to 100

Now from value to compound:

IC50 [µM] | SMILES
< 20 | NC(=S)c1cccc(-c2cn(CCCC(F)(F)F)c3cc(CNCc4cn[nH]n4)ccc23)c1
< 20 | NC(=S)c1ccc(F)c(-c2cn(CCCC(F)(F)F)c3cc(N)ccc23)c1
< 20 | NC(=S)c1cccc(-c2cn(CCCC(F)(F)F)c3cc(CNS(=O)(=O)c4c[nH]cn4)ccc23)c1
< 20 | NC(=S)c1cc(-c2cn(CC(CF)CF)c3cc(CO)ccc23)ccc1F
< 20 | NC(=S)c1cccc(-c2cn(CC3C(F)(F)COCC3(F)F)c3cc(CO)ccc23)c1
< 20 | NC(=S)c1ccnc(-c2cn(CC(CF)CF)c3cc(CO)ccc23)c1
< 20 | NC(=S)c1cccc(-c2cn(CC3CC(O)C(O)C3)c3cc(CO)ccc23)c1 (stereo not given)
< 20 | NC(=S)c1cccc(-c2ccc(CCC(F)F)c3[nH]ccc23)c1
< 20 | NC(=S)c1cccc(-c2cn(CC(F)(F)F)c3cc(NCC(F)(F)F)ccc23)c1
< 20 | CCCOc1nnc(NCc2ccc3c(-c4cccc(C(N)=S)c4)cn(C4CCN(S(C)(=O)=O)CC4)c3c2)s1
< 20 | CS(=O)(=O)N1CCC(n2cc(-c3cccc(C(N)=S)c3)c3ccc(N)cc32)CC1
20 to 100 | COCc1cc2c(-c3cccc(C(N)=S)c3)ccc(O)c2[nH]1
< 20 | NC(=S)c1cccc(-c2cn(CCCC(F)(F)F)c3cc(CNC(=O)Cc4csc(N)n4)ccc23)c1
< 20 | N#Cc1cccc(-c2cn(CC(CO)C(F)F)c3cc(N)ccc23)c1 (stereo not given)
> 100 | Cc1cc(O)ccc1-c1cccc(C(N)=S)c1
20 to 100 | NC(=S)c1cc(O)cc(-c2cn(CCCC(F)(F)F)c3cc(N)ccc23)c1
> 100 | NC(=S)c1cccc(-c2ccc(S(N)(=O)=O)cc2)c1
< 20 | NC(=S)c1cccc(-c2cn(CCC(F)F)c3cc(CNS(=O)(=O)C(F)(F)F)ccc23)c1
< 20 | NC(=S)c1cccc(-c2cn(CC3C(F)(F)C3(F)F)c3cc(CO)ccc23)c1
< 20 | NC(=O)c1cc(-c2cn(CCC(F)F)c3cc(CO)ccc23)ccc1N
20 to 100 | NC(=S)c1cccc(-c2cccc3nc(N)sc23)c1
> 100 | Cc1c(O)ccc(-c2cncc(C(N)=S)c2)c1C
20 to 100 | NC(=S)c1cccc(-c2cn(CCO)c3cc(N)ccc23)c1
> 100 | NC(=S)c1ccc2cc[nH]c2c1
< 20 | Cc1nc(CS(=O)(=O)NCc2ccc3c(-c4cccc(C(N)=S)c4)cn(C4CCN(S(C)(=O)=O)CC4)c3c2)cs1

IC50 [µM] | SMILES
< 20 | NC(=S)c1cccc(-n2cc(CCC(F)F)c3cc(CO)ccc32)c1
< 20 | NC(=S)c1cc(-c2cn(CC(CF)CF)c3cc(CO)ccc23)ccn1
> 100 | NC(=S)c1cc(-c2c[nH]c3ccccc23)ccc1N
< 20 | NC(=S)c1cccc(-c2cn(CC(O)C(F)(F)F)c3cc(CO)ccc23)c1 (stereo not given)
20 to 100 | NC(=S)c1cccc(-c2cc(C(F)(F)F)cc3c2ccn3CCO)c1
20 to 100 | NC(=S)c1cccc(-c2cn(CCCC(F)(F)F)c3ccc(N)cc23)c1
> 100 | O=C1NCc2c1cccc2-c1ccc(O)cc1
> 100 | Cc1cc(O)ccc1-c1cncc(C(N)=S)c1
< 20 | NC(=S)c1ccnc(-c2cn(CCC(F)F)c3cc(CO)ccc23)c1
> 100 | COc1cc(C(N)=S)cc(-c2cccc3[nH]ccc23)c1
< 20 | NC(=S)c1cccc(-c2cn(CCC(F)F)c3cc(CO)cc(F)c23)c1
20 to 100 | NC(=S)c1cccc(-c2cc(C(F)(F)F)cc3[nH]ccc23)c1
< 20 | NC(=S)c1cccc(-c2cn(C3CCN(S(N)(=O)=O)CC3)c3cc(N)ccc23)c1
> 100 | NC(=S)c1cccc(-c2cccc3[nH]c(CNCCCO)cc23)c1
< 20 | NC(=S)c1cccc(-c2cn(CC3(F)CC3)c3cc(CO)ccc23)c1
20 to 100 | NC(=S)c1cccc(-c2cn(CCO)c3ccccc23)c1
> 100 | NC(=S)c1cccc(-c2cccc(OCc3ccccc3)c2)c1
< 20 | NC(=S)c1cccc(-c2cn(CCC(F)F)c3cc(CNc4c[nH]cn4)ccc23)c1
< 20 | NC(=S)c1cc(-c2cn(CC(CF)CF)c3cc(CO)ccc23)ccc1O
< 20 | NC(=S)c1cccc(-n2cc(CC(CF)CF)c3cc(N)ccc32)c1
20 to 100 | NC(=S)c1cccc(-c2c[nH]c3c(CO)cccc23)c1
> 100 | CCn1ccc2c(-c3cccc(C(N)=S)c3)cccc21
> 100 | NC(=S)c1cccc(-c2ccccc2)c1
20 to 100 | NC(=S)c1cccc(-c2c[nH]c3cc(CNC=O)ccc23)c1
< 20 | CCCS(=O)(=O)N1CCC(n2cc(-c3cccc(C(N)=S)c3)c3ccc(CNC(=O)COc4cccc5c4C(=O)N(C4CCC(=O)NC4=O)C5=O)cc32)CC1 (stereo not given)
